Source: patent US10562891B2, “Quinazolinones as PARP14 inhibitors” (Ribon Therapeutics Inc., priority 2017, dated 2020)
Structures can show the parent of a compound that is named as a salt.

These compounds were tested against catalytic domain of human PARP14 (Homo sapiens (Human), UniProt Q460N5) (assay: Enzymatic assay for inhibition of PARP14 (DELFIA, auto-modification with biotin-NAD)). Settings: auto-modification of PARP14 by biotin-NAD, 50 nM PARP14, 3 μM biotin-NAD.
Type: biochemical
Experimental: An N-terminal His-TEV fusion tag was used to purify the protein from cell lysates. The His-TEV tag was left on the protein for use in the enzymatic assay.
Enzymatic inhibition of PARP14 was measured using a dissociation-enhanced lanthanide fluorescence immunoassay (DELFIA) monitoring the auto-modification of PARP14 by biotinylated nicotinamide adenine dinucleotide (biotin-NAD). 1 μL of a dose response curve of each test compound was spotted in 384-well nickel-coated white microplates (Thermo) using a Mosquito (TTP Labtech). Reactions were performed in a 50 μL volume by adding 40 μL of PARP14 in assay buffer (20 mM HEPES pH==8, 100 mM NaCl, 0.1% bovine serum albumin, 2 mM DTT and 0.002%0 Tween20), incubating with test compound at 25° C. for 30 min, then adding 10 μL of biotin-NAD (Biolog). The final concentrations of PARP14 and biotin-NAD are 50 nM and 3 μM, respectively. Reactions proceeded at 25° C. for 3 h, then were quenched with 5 μL of 10 mM unmodified nicotinamide adenine dinucleotide (Sigma-Aldrich). The quenched reactions were washed 3 times with 100 μL of TBST wash buffer (50 mM Tris-HCl, 150 mM NaCl and 0.1% Tween20). Next, to the washed and dried plate was added 25 μL of DELFIA Europium-N1 streptavidin (Perkin Elmer) diluted in DELFIA assay buffer (Perkin Elmer). After a 30 min incubation at 25° C., the plate was washed 5 times with TBST wash buffer. Finally, 25 μL of DELFIA enhancement solution was added. After a 5 min incubation the plate was read on an Envision platereader equipped with a LANCE/DELFIA top mirror (Perkin Elmer) using excitation of 340 nm and emission of 615 nm to measure the amount of Europium present in each well, informing on the amount of biotin-NAD that was transferred in the automodification reaction.
[formula] where ex615cmpd is the emission from the compound treated well, ex615min is the emission from the rucaparib treated positive control well and ex615max is the emission from the DMSO treated negative control well.
The % inhibition values were plotted as a function of compound concentration and the following 4-parameter fit was applied to derive the IC50 values:
[formula] where top and bottom are normally allowed to float, but may be fixed at 100 or 0 respectively in a 3-parameter fit. The Hill Coefficient is normally allowed to float but may also be fixed at 1 in a 3-parameter fit. Y is the % inhibition and X is the compound concentration.

Sequence of catalytic domain of human PARP14 (Q460N5 1611-1801): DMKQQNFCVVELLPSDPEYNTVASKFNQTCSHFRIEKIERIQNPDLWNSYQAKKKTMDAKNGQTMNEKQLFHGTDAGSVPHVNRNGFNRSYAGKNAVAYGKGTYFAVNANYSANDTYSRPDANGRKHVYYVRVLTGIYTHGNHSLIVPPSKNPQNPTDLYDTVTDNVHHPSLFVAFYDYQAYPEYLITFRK

Row | IC50 | Structure (SMILES)
1 | < 1 µM | C[C@]1(O)C[C@H](COc2cc(F)c3c(=O)[nH]c(CSC4CCOCC4)nc3c2)C1 [Example 385]
2 | < 1 µM | O=c1[nH]c(CS[C@H]2CC[C@H](CO)CC2)nc2cc(NC3CCCC3)ccc12 [Example 180, 7-(cyclopentylamino)-2-((((1R,4R)-4-(hydroxymethyl)cyclohexyl)thio)methyl)quinazolin-4(3H)-one]
3 | > 10 µM | O=c1[nH]c(CSC2CCOCC2)nc2ccncc12 [Example 40, 2-(((Tetrahydro-2H-pyran-4-yl)thio)methyl)pyrido[4,3-d]pyrimidin-4(3H)-one]
4 | < 1 µM | O=c1[nH]c(CSC2CCOCC2)nc2cc(NC3CCCCC3)ccc12 [Example 108, 7-(Cyclohexylamino)-2-(((tetrahydro-2H-pyran-4-yl)thio)methyl)quinazolin-4(3H)-one]
5 | 1 to 10 µM | Cc1n[nH]cc1CN1CCC(SCc2nc3c(C)cccc3c(=O)[nH]2)CC1 [Example 149, 8-Methyl-2-(((1-((3-methyl-1H-pyrazol-4-yl)methyl)piperidin-4-yl)thio)methyl)quinazolin-4(3H)-one trifluoroacetate]
6 | < 1 µM | CO[C@H]1CC[C@H](Nc2cc3nc(CS[C@H]4CC[C@H](O)CC4)[nH]c(=O)c3c(F)c2F)CC1 [Example 377]
7 | < 1 µM | O=c1[nH]c(CS[C@H]2CC[C@H](O)CC2)nc2cc(NC3CCCC3)ccc12 [Example 102, 7-(Cyclopentylamino)-2-(((trans-4-hydroxycyclohexyl)thio)methyl) quinazolin-4(3H)-one]
8 | 1 to 10 µM | O=c1[nH]c(CSC2CCOCC2)nc2cc(NC3CCCN(Cc4ccccc4)C3)ccc12 (centres unmarked) [Example 126, 7-[(1-Benzyl-3-piperidyl)amino]-2-(tetrahydropyran-4-ylsulfanylmethyl)-3H-quinazolin-4-one]
9 | < 1 µM | Cc1cccc2c(=O)[nH]c(CSC3CCCNCC3)nc12 (centres unmarked) [Example 20, 2-((Azepan-4-ylthio)methyl)-8-methylquinazolin-4(3H)-one Trifluoroacetate]
10 | 1 to 10 µM | CO[C@H]1CC[C@H](SCc2nc3c(C)cccc3c(=O)[nH]2)CC1 [Example 26, 2-((((trans)-4-Methoxycyclohexyl)thio)methyl)-8-methylquinazolin-4(3H)-one]
11 | < 1 µM | Cc1cccc2c(=O)[nH]c(CSC3CCN(Cc4nccn4C)CC3)nc12 [Example 138, 8-Methyl-2-(((1-((1-methyl-1H-imidazol-2-yl)methyl)piperidin-4-yl)thio)methyl)quinazolin-4(3H)-one bistrifluoroacetate]
12 | < 1 µM | O=c1[nH]c(CSC2CCOCC2)nc2cc(NCCC3CCCC3)ccc12 [Example 252, 7-((2-Cyclopentylethyl)amino)-2-(((tetrahydro-2H-pyran-4-yl)thio)methyl)quinazolin-4(3H)-one]
13 | < 1 µM | CC(=O)N1CCC(COc2cc(Cl)c3c(=O)[nH]c(CSC4CCOCC4)nc3c2)CC1 [Example 423]
14 | < 1 µM | N#C[C@H]1CC[C@@H](Nc2cc3nc(CSC4CCOCC4)[nH]c(=O)c3c(F)c2F)CC1 [Example 361]
15 | < 1 µM | CC(Oc1cc(F)c2c(=O)[nH]c(CSC3CCOCC3)nc2c1)C1CCCC1 (centres unmarked) [Example 394]
16 | < 1 µM | Cc1cccc2c(=O)[nH]c(CS[C@H]3CC[C@H](CC(N)=O)CC3)nc12 [Example 209, 2-((trans)-4-(((8-Methyl-4-oxo-3,4-dihydroquinazolin-2-yl)methyl)thio)cyclohexyl) acetamide]
17 | < 1 µM | O=c1[nH]c(CSC2CCOCC2)nc2cc(NC3CCCC3)ccc12 [Example 115, 7-(Cyclopentylamino)-2-(((tetrahydro-2H-pyran-4-yl)thio)methyl)quinazolin-4(3H)-one]
18 | < 1 µM | CN1CC[C@@H](SCc2nc3cc(NC4CCCC4)cc(F)c3c(=O)[nH]2)[C@@H](F)C1 (relative stereo) [Example 413]
19 | < 1 µM | O=c1[nH]c(CSC2CCOCC2)nc2cc(Nc3ccon3)ccc12 [Example 94, 7-(Isoxazol-3-ylamino)-2-(((tetrahydro-2H-pyran-4-yl)thio)methyl)quinazolin-4(3H)-one]
20 | < 1 µM | CC(F)(F)CN1CCC(SCc2nc3cc(NC4CCCC4)ccc3c(=O)[nH]2)CC1 [Example 264, 7-(Cyclopentylamino)-2-(((1-(2,2-difluoropropyl)piperidin-4-yl)thio)methyl)quinazolin-4(3H)-one]
21 | < 1 µM | CC(C)Nc1ccc2c(=O)[nH]c(CSC3CCOCC3)nc2c1 [Example 116, 7-(Isopropylamino)-2-(((tetrahydro-2H-pyran-4-yl)thio)methyl)quinazolin-4(3H)-one]
22 | < 1 µM | O=c1[nH]c(CSC2CCOCC2)nc2cc(OC[C@H]3CNC[C@H]3F)cc(F)c12 (relative stereo) [Example 371]
23 | < 1 µM | O=c1[nH]c(CSC2CCOCC2)nc2cc(OCC3CCCN(CC(F)F)C3)cc(F)c12 (centres unmarked) [Example 312, 7-((1-(2,2-Difluoroethyl)piperidin-3-yl)methoxy)-5-fluoro-2-(((tetrahydro-2H-pyran-4-yl)thio)methyl)quinazolin-4(3H)-one]
24 | > 10 µM | Cc1cccc2c(=O)[nH]c(CSC3CNC3)nc12 [Example 25, 2-((Azetidin-3-ylthio)methyl)-8-methylquinazolin-4(3H)-one Trifluoroacetate]
25 | < 1 µM | CC(=O)Nc1ccc(CN2CCC(SCc3nc4c(C)cccc4c(=O)[nH]3)CC2)cc1 [Example 139, N-(4-((4-(((8-Methyl-4-oxo-3,4-dihydroquinazolin-2-yl)methyl)thio)piperidin-1-yl)methyl)phenyl)acetamide trifluoroacetate]
26 | 1 to 10 µM | Cc1cccc2c(=O)[nH]c(CSCC3CCOCC3)nc12 [Example 12, 8-Methyl-2-((((tetrahydro-2H-pyran-4-yl)methyl)thio)methyl)quinazolin-4(3H)-one]

Row | Structure (SMILES) | IC50
27 | Cc1cccc2c(=O)[nH]c(CSC3CCCNC3)nc12 (centres unmarked) [Example 48, 8-Methyl-2-((piperidin-3-ylthio)methyl)quinazolin-4(3H)-one Hydrochloride] | 1 to 10 µM
28 | Cc1cccc2c(=O)[nH]c(CS[C@H]3CC[C@@H](CN(C)C)CC3)nc12 [Example 68, 2-(((cis-4-((Dimethylamino)methyl)cyclohexyl)thio)methyl)-8-methyl quinazolin-4(3H)-one Trifluoroacetate] | 1 to 10 µM
29 | O=c1[nH]c(CS[C@H]2CC[C@H](O)CC2)nc2cc(NCC3CC3)cc(F)c12 [Example 271, 7-((Cyclopropylmethyl)amino)-5-fluoro-2-(((trans-4-hydroxycyclohexyl)thio)methyl)quinazolin-4(3H)-one] | < 1 µM
30 | O=c1[nH]c(CSC2CCCCC2)nc2cc(OCC3CCC3)cc(F)c12 [Example 309, 7-(Cyclobutylmethoxy)-2-((cyclohexylthio)methyl)-5-fluoroquinazolin-4(3H)-one] | < 1 µM
31 | O=c1[nH]c(CSC2CCNCC2)nc2cc(NC3CCCC3)c(F)c(F)c12 [Example 232, 7-(Cyclopentylamino)-5,6-difluoro-2-((piperidin-4-ylthio)methyl)quinazolin-4(3H)-one Hydrochloride] | < 1 µM
32 | NC[C@]1(F)CC[C@@H](SCc2nc3cc(NC4CCCC4)cc(F)c3c(=O)[nH]2)CC1 [Example 243, 2-(((trans-4-(Aminomethyl)-4-fluorocyclohexyl)thio)methyl)-7-(cyclopentylamino)-5-fluoroquinazolin-4(3H)-one Trifluoroacetate] | < 1 µM
